Source: patent US9192621B2, “Esters and malonates of SATE prodrugs” (IDENIX PHARMACEUTICALS LLC, priority 2012, dated 2015)

Tests used:
HCV genotype 1b replicon = assay: HCV replicon assay (luciferase reporter, Zluc cells); format: cell-based; details: Huh-7-derived Zluc cells, 72 hours of incubation
[1] = Cytotoxicity evaluation, CellTiter-Blue Cell Viability Assay; format: cell-based; details: human, Zluc cells (HCV replicon cells)
[2] = Stability in simulated gastric and intestinal fluids; format: in vitro ADME; details: 100 μM, 2 hours at 37° C., percent of the peak area observed at time zero
Protocol: Stability in simulated gastric and intestinal fluids: Simulated gastric and intestinal fluids containing pepsin and pancreatin respectively were prepared according to the U.S. Pharmacopoeia USP291 procedure (www.pharmacopeia.cn/v29240/usp29nf24s0_ris1s126.html). Test compound (final concentration 100 μM) was incubated in duplicate in the appropriate fluid for 2 hours at 37° C. The samples were quenched with 200 μl cold acetonitrile, vortexed for 30 seconds and then centrifuged at 16,100 g for 10 min. The supernatants were analyzed by HPLC on a C-18 column with UV detection at 252 nm. The time 0 samples were prepared by adding SGF or SIF fluid to the quenching solvent followed by the test compound. Stability of the compound was determined by peak area for the test compound after incubation and calculated as percent of the peak area observed at time zero.

Zluc cells = assay: Cytotoxicity evaluation, CellTiter-Blue Cell Viability Assay; format: cell-based; details: read-out: HCV Replicon CC50

Work on `CC(=O)OCC(C)(C)C(=O)SCCOP(=O)(NCc1ccccc1)OCC1O[C@@H](n2cnc3c(=O)[nH]c(N)nc32)[C@](C)(O)[C@@H]1O` (stereo partly drawn) [Compound 106] yielded an EC50 (HCV genotype 1b replicon; Hepatitis C virus) of no more than 0.25 µM and a CC50 at 72 h [1] of no more than 50 µM.
Work on `CCCCCC(=O)OCC(C)(C)C(=O)SCCOP(=O)(NCc1ccccc1)OCC1O[C@@H](n2cnc3c(=O)[nH]c(N)nc32)[C@](C)(O)[C@@H]1O` (stereo partly drawn) [Compound 108] yielded an EC50 (HCV genotype 1b replicon; Hepatitis C virus) of no more than 0.25 µM and a CC50 at 72 h [1] of no more than 50 µM.
For `CCCCCC(=O)OCC(C)(C)C(=O)SCCOP(=O)(NCc1ccccc1)OC[C@H]1O[C@@H](n2cnc3c(OCC)nc(N)nc32)[C@](C)(F)[C@@H]1O` (stereo partly drawn) [Compound 103], the EC50 (HCV genotype 1b replicon; Hepatitis C virus) was no more than 0.25 µM and the CC50 at 72 h [1] was greater than 50 µM.
With `CCOc1nc(N)nc2c1ncn2[C@@H]1O[C@H](COP(=O)(NCc2ccccc2)OCCSC(=O)C(C)(C)C(=O)OC(C)C)[C@@H](O)[C@@]1(C)F` (stereo partly drawn) [Compound 105] the EC50 (HCV genotype 1b replicon; Hepatitis C virus) was no more than 0.25 µM and the CC50 at 72 h [1] was greater than 50 µM.
Work on `CCCC(=O)OCC(C)(C)C(=O)SCCOP(=O)(NCc1ccccc1)OC[C@H]1O[C@@H](n2cnc3c(OCC)nc(N)nc32)[C@](C)(F)[C@@H]1O` (stereo partly drawn) [Compound 102] yielded an EC50 (HCV genotype 1b replicon; Hepatitis C virus) of no more than 0.25 µM and a CC50 at 72 h [1] of no more than 50 µM.
With `CCCC(=O)OCC(C)(C)C(=O)SCCOP(=O)(NCc1ccccc1)OCC1O[C@@H](n2cnc3c(=O)[nH]c(N)nc32)[C@](C)(O)[C@@H]1O` (stereo partly drawn) [Compound 107] the “Stability SGF” value ([2]; simulated gastric fluid containing pepsin) was “+++ (50<+++<100)”, the “Stability SIF” value ([2]; simulated intestinal fluid containing pancreatin) was “+ (+≦25)” and the EC50 (HCV genotype 1b replicon; Hepatitis C virus) was no more than 0.25 µM. The CC50 at 72 h [1] was no more than 50 µM.
Compound `CCOc1nc(N)nc2c1ncn2[C@@H]1O[C@H](COP(=O)(NCc2ccccc2)OCCSC(=O)C(C)(C)C(=O)OC(C)C)[C@@H](O)[C@@]1(C)F` (single isomer, unassigned) [Compound 105 Diastereomer 1] has an EC50 (HCV genotype 1b replicon; Hepatitis C virus) of no more than 0.25 µM and a CC50 at 72 h [1] greater than 50 µM.
Compound `CCCCCC(=O)OCC(C)(C)C(=O)SCCOP(=O)(NCc1ccccc1)OC[C@H]1O[C@@H](n2cnc3c(OCC)nc(N)nc32)[C@](C)(F)[C@@H]1O` (single isomer, unassigned) [Compound 103 Diastereomer 2] has a CC50 (Zluc cells) greater than 50 µM.
For `CCOc1nc(N)nc2c1ncn2[C@@H]1O[C@H](COP(=O)(NCc2ccccc2)OCCSC(=O)C(C)(C)COC(C)=O)[C@@H](O)[C@@]1(C)F` (single isomer, unassigned) [Compound 101 Diastereomer 2], the EC50 (HCV genotype 1b replicon) was no more than 0.25 µM.
`CCOc1nc(N)nc2c1ncn2[C@@H]1O[C@H](COP(=O)(NCc2ccccc2)OCCSC(=O)C(C)(C)C(=O)OC(C)C)[C@@H](O)[C@@]1(C)F` (single isomer, unassigned) [Compound 105 Diastereomer 2] gave a CC50 (Zluc cells) greater than 50 µM.
`CCCCCC(=O)OCC(C)(C)C(=O)SCCOP(=O)(NCc1ccccc1)OC[C@H]1O[C@@H](n2cnc3c(OCC)nc(N)nc32)[C@](C)(F)[C@@H]1O` (single isomer, unassigned) [Compound 103 Diastereomer 1] gave an EC50 (HCV genotype 1b replicon; Hepatitis C virus) of no more than 0.25 µM and a CC50 at 72 h [1] greater than 50 µM.
For `CCOc1nc(N)nc2c1ncn2[C@@H]1O[C@H](COP(=O)(NCc2ccccc2)OCCSC(=O)C(C)(C)COC(C)=O)[C@@H](O)[C@@]1(C)F` (single isomer, unassigned) [Compound 101 Diastereomer 1], the EC50 (HCV genotype 1b replicon; Hepatitis C virus) was no more than 0.25 µM and the CC50 at 72 h [1] was no more than 50 µM.
Compound `CCOc1nc(N)nc2c1ncn2[C@@H]1OC(COP(=O)(NCc2ccccc2)OCCSC(=O)C(C)(C)COC(=O)C(C)C)[C@@H](O)[C@@]1(C)F` (stereo partly drawn) [Compound 104] has an EC50 (HCV genotype 1b replicon; Hepatitis C virus) of no more than 0.25 µM and a CC50 at 72 h [1] of no more than 50 µM.
In the case of `CCOc1nc(N)nc2c1ncn2[C@@H]1O[C@H](COP(=O)(NCc2ccccc2)OCCSC(=O)C(C)(C)COC(C)=O)[C@@H](O)[C@@]1(C)F` (stereo partly drawn) [Compound 101], the EC50 (HCV genotype 1b replicon; Hepatitis C virus) is reported as no more than 0.25 µM and the CC50 at 72 h [1] is reported as no more than 50 µM.
